Data taken from patent US10246469B2, “Biaryl kinase inhibitors” (BRISTOL-MYERS SQUIBB COMPANY, priority 2015, dated 2019).
pIC50: −log10 of the molar value.

Molecular target: T1, GST-Xa-hAAK1 (Homo sapiens, UniProt Q2M2I8)
T1 construct: GST (N); Factor Xa cleavage site (Xa) (internal); made in house
Assay: AAK1 Kinase Assay
Format: biochemical
Conditions: bacterially expressed GST-Xa-hAAK1 3.5 nM; ATP 22 μM; fluoresceinated peptide 1.5 μM; 3 hours at room temperature; Caliper LabChip 3000
Protocol: The assays were performed in U-bottom 384-well plates. The final assay volume was 30 μl prepared from 15 μl additions of enzyme and substrates (fluoresceinated peptide (5-FAM)-Aha-[…]-NH2 and ATP) and test compounds in assay buffer (10 mM Tris-HCL pH 7.4, 10 mM MgCl2, 0.01% Tween-20 and 1.0 mM DTT). The reactions were initiated by the combination of bacterially expressed, GST-Xa-hAAK1 with substrates and test compounds. The reactions were incubated at room temperature for 3 hours and terminated by adding 60 μl of 35 mM EDTA buffer to each sample. The reactions were analyzed on the Caliper LabChip 3000 (Caliper, Hopkinton, Mass.) by electrophoretic separation of the fluorescent substrate and phosphorylated product. […] The final concentration of reagents in the assays are ATP, 22 μM; (5-FAM)-Aha-[…]-NH2, 1.5 μM; GST-Xa-hAAK1, 3.5 nM; and DMSO, 1.6%. […] Compounds were dissolved at 10 mM in dimethylsulfoxide (DMSO) and evaluated at eleven concentrations. IC50 values were derived by non-linear regression analysis.

T1 sequence (Q2M2I8 whole entry): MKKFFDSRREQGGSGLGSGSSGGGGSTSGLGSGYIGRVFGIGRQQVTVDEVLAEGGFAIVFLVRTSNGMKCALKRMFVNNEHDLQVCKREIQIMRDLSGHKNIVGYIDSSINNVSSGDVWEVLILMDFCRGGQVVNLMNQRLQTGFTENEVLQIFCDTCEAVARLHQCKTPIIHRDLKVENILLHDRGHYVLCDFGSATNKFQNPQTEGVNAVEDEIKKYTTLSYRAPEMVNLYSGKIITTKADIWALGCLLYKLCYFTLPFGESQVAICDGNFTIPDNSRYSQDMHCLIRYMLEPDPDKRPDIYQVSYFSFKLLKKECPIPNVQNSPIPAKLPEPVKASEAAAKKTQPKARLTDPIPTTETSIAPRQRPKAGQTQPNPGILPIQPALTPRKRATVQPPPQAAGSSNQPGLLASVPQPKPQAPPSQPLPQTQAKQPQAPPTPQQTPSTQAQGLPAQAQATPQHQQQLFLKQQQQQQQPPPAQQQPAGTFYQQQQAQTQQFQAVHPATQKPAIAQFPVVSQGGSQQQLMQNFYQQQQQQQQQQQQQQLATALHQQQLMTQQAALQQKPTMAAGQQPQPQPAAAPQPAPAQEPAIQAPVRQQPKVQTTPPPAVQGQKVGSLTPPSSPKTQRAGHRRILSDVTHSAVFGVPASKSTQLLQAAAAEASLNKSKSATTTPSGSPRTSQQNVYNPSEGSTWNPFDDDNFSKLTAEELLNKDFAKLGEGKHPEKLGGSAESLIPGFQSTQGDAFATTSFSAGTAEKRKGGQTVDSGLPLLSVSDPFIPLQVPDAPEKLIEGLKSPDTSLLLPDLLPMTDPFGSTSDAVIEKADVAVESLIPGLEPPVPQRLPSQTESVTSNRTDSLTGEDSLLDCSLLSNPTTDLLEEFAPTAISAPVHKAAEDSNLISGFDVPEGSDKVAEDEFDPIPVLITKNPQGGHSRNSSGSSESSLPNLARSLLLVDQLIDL

CC(C)C[C@](C)(N)COc1ccc(-c2ccnc3c2cnn3C)cc1F [Example 289, (5)-1-(2-fluoro-4-(1-methyl-1H-pyrazolo[3,4-b]pyridin-4-yl)phenoxy)-2,4-dimethylpentan-2-amine]
pIC50: 7.24

Cc1nc2c(-c3ccc(OC[C@@](C)(N)CC(C)C)c(C(F)(F)F)c3)ccnc2[nH]1 [Example 291, (S)-2,4-dimethyl-1-(4-(2-methyl-3H-imidazo[4,5-b]pyridin-7-yl)-2-(trifluoromethyl)phenoxy)pentan-2-amine]
pIC50: 7.47

CC(C)C[C@](C)(N)COc1ccc(-c2ccnc3[nH]ncc23)cc1C(F)(F)F [Example 292, (S)-1-(4-(1H-pyrazolo[3,4-b]pyridin-4-yl)-2-(trifluoromethyl)phenoxy)-2,4-dimethylpentan-2-amine]
pIC50: 9.40

Cc1nc2c(-c3ccc(OC[C@@](C)(N)CC(C)C)c(C#N)c3)ccnc2[nH]1 [Example 293, (S)-2-((2-amino-2,4-dimethylpentyl)oxy)-5-(2-methyl-3H-imidazo[4,5-b]pyridin-7-yl)benzonitrile]
pIC50: 7.85

Cc1nc2c(-c3ccc(OC[C@@](C)(N)CC(C)C)c(C)c3)ccnc2[nH]1 [Example 294, (S)-2,4-dimethyl-1-(2-methyl-4-(2-methyl-3H-imidazo[4,5-b]pyridin-7-yl)phenoxy)pentan-2-amine]
pIC50: 6.92

COCc1nc2c(-c3ccc(OC[C@@](C)(N)CC(C)C)c(C(F)(F)F)c3)ccnc2[nH]1 [Example 295, (S)-1-(4-(2-(methoxymethyl)-3H-imidazo[4,5-b]pyridin-7-yl)-2-(trifluoromethyl)phenoxy)-2,4-dimethylpentan-2-amine]
pIC50: 7.66

COCc1nc2c(-c3ccc(OC[C@@](C)(N)CC(C)C)c(C)c3)ccnc2[nH]1 [Example 296, (S)-1-(4-(2-(methoxymethyl)-3H-imidazo[4,5-b]pyridin-7-yl)-2-methylphenoxy)-2,4-dimethylpentan-2-amine]
pIC50: 6.88

CC(C)C[C@](C)(N)COc1ccc(-c2ccnc3c2CC(=O)N3)cc1C#N [Example 302, (S)-2-((2-amino-2,4-dimethylpentyl)oxy)-5-(2-oxo-2,3-dihydro-1H-pyrrolo[2,3-b]pyridin-4-yl)benzonitrile]
pIC50: 8.28

CC(C)C[C@](C)(N)COc1ccc(-c2ccnc3c2CC(=O)N3)cc1C(F)(F)F [Example 303, (S)-4-(4-((2-amino-2,4-dimethylpentyl)oxy)-3-(trifluoromethyl)phenyl)-1H-pyrrolo[2,3-b]pyridin-2(3H)-one]
pIC50: 9.22

Cc1nccc(-c2ccc(OCC(C)(C)N)c(C)n2)n1 [Example 321, 2-methyl-1-((2-methyl-6-(2-methylpyrimidin-4-yl)pyridin-3-yl)oxy)propan-2-amine]
pIC50: 6.79

CC(C)C[C@](C)(N)COc1ccc(-c2ccnc3ccnn23)nc1C(F)F [Example 322, (S)-1-((2-(difluoromethyl)-6-(pyrazolo[1,5-a]pyrimidin-7-yl)pyridin-3-yl)oxy)-2,4-dimethylpentan-2-amine]
pIC50: 9.40

CC(C)C[C@](C)(N)COc1ccc(-c2cnn3cccnc23)cc1Cl [Example 332]
pIC50: 7.03

Cc1cc(-c2cnn3cccnc23)ccc1OC[C@@](C)(N)CC(C)C [Example 333]
pIC50: 7.00

CC(C)C[C@](C)(N)COc1ccc(-c2ccnc(NC3CCC(F)C3)c2)cc1Cl (stereo partly drawn) [Example 334, 4-(4-(((S)-2-amino-2,4-dimethylpentyl)oxy)-3-chlorophenyl)-N-(3-fluorocyclopentyl)pyridin-2-amine]
pIC50: 7.82

CC(C)C[C@](C)(N)COc1ccc(-c2ccnc3cc(C(F)(F)F)nn23)cc1F [Example 335, (S)-1-(2-fluoro-4-(2-(trifluoromethyl)pyrazolo[1,5-a]pyrimidin-7-yl)phenoxy)-2,4-dimethylpentan-2-amine]
pIC50: 6.58

CC(C)C[C@](C)(N)COc1ccc(-c2ccnc3cc(C(F)(F)F)nn23)cc1Cl [Example 336, (S)-1-(2-chloro-4-(2-(trifluoromethyl)pyrazolo[1,5-a]pyrimidin-7-yl)phenoxy)-2,4-dimethylpentan-2-amine]
pIC50: 7.82

CC(C)C[C@](C)(N)COc1ccc(-c2ccnc3ccnn23)c2scnc12 [Example 341, (S)-2,4-dimethyl-1-((7-(pyrazolo[1,5-a]pyrimidin-7-yl)benzo[d]thiazol-4-yl)oxy)pentan-2-amine]
pIC50: 6.67

Cc1nccc(-c2ccc(OC[C@@](C)(N)CC(C)C)c3ncsc23)n1 [Example 342, (S)-2,4-dimethyl-1-((7-(2-methylpyrimidin-4-yl)benzo[d]thiazol-4-yl)oxy)pentan-2-amine]
pIC50: 7.41

CC(C)C[C@](C)(N)COc1ccc(-c2ccnc(NC3CCOC3)c2)cc1Cl (stereo partly drawn) [Example 345, 4-(4-(((S)-2-amino-2,4-dimethylpentyl)oxy)-3-chlorophenyl)-N-(tetrahydrofuran-3-yl)pyridin-2-amine]
pIC50: 8.28

Cc1cc(-c2ccnc(NC3CCOC3)c2)ccc1OC[C@@](C)(N)CC(C)C (stereo partly drawn) [Example 346, 4-(4-(((S)-2-amino-2,4-dimethylpentyl)oxy)-3-methylphenyl)-N-(tetrahydrofuran-3-yl)pyridin-2-amine]
pIC50: 7.64

Cc1nccc(-c2cnc(OCC3(N)CCC3)c(C)c2)n1 [Example 347, 1-(((3-methyl-5-(2-methylpyrimidin-4-yl)pyridin-2-yl)oxy)methyl)cyclobutanamine]
pIC50: 6.02

CC(C)C[C@](C)(N)COc1ccc(-c2ccnc3ccnn23)cc1C(F)F [Example 351, (S)-1-(2-(difluoromethyl)-4-(pyrazolo[1,5-a]pyrimidin-7-yl)phenoxy)-2,4-dimethylpentan-2-amine]
pIC50: 9.40

CC(C)C[C@](C)(N)COc1ccc(-c2ccnc3ccnn23)cc1CF [Example 353, (S)-1-(2-(fluoromethyl)-4-(pyrazolo[1,5-a]pyrimidin-7-yl)phenoxy)-2,4-dimethylpentan-2-amine]
pIC50: 9.70

CC(C)C[C@](C)(N)COc1ccc(-c2cc(NC3CCCOC3)ncn2)cc1C(F)(F)F (stereo partly drawn) [Example 358, 6-(4-(((S)-2-amino-2,4-dimethylpentyl)oxy)-3-(trifluoromethyl)phenyl)-N-(tetrahydro-2H-pyran-3-yl)pyrimidin-4-amine]
pIC50: 6.41

CC(C)C[C@](C)(N)COc1ccc(-c2ncnc3[nH]ccc23)cc1Cl [Example 361, (S)-1-(2-chloro-4-(7H-pyrrolo[2,3-d]pyrimidin-4-yl)phenoxy)-2,4-dimethylpentan-2-amine]
pIC50: 8.77

CC(C)C[C@](C)(N)COc1ccc(-c2ncnc3[nH]ccc23)cc1C#N [Example 362, (S)-2-((2-amino-2,4-dimethylpentyl)oxy)-5-(7H-pyrrolo[2,3-d]pyrimidin-4-yl)benzonitrile]
pIC50: 9.00

CC(C)C[C@](C)(N)COc1ccc(-c2ncnc3[nH]ccc23)cc1C(F)(F)F [Example 363, (S)-1-(4-(7H-pyrrolo[2,3-d]pyrimidin-4-yl)-2-(trifluoromethyl)phenoxy)-2,4-dimethylpentan-2-amine]
pIC50: 9.40

CC(C)C[C@](C)(N)COc1ccc(-c2ncnc3c2ccn3C)cc1C#N [Example 364, (S)-2-((2-amino-2,4-dimethylpentyl)oxy)-5-(7-methyl-7H-pyrrolo[2,3-d]pyrimidin-4-yl)benzonitrile]
pIC50: 7.62

CC(C)C[C@](C)(N)COc1ccc(-c2ncnc3c2ccn3C)cc1F [Example 365, (S)-1-(2-fluoro-4-(7-methyl-7H-pyrrolo [2,3-d]pyrimidin-4-yl)phenoxy)-2,4-dimethylpentan-2-amine]
pIC50: 7.01

CC(C)C[C@](C)(N)COc1ccc(-c2ncnc3c2ccn3C)cc1C(F)(F)F [Example 366, (S)-2,4-dimethyl-1-(4-(7-methyl-7H-pyrrolo[2,3-d]pyrimidin-4-yl)-2-(trifluoromethyl)phenoxy)pentan-2-amine]
pIC50: 7.22

Cc1cc(-c2ccnc(Nc3nccs3)n2)ccc1OC[C@@](C)(N)CC(C)C [Example 368, (S)—N-(4-(4-((2-amino-2,4-dimethylpentyl)oxy)-3-methylphenyl)pyrimidin-2-yl)thiazol-2-amine]
pIC50: 9.52

Cc1cc(-c2ccnc(NC3CC3)n2)ccc1OC[C@@](C)(N)CC(C)C [Example 369, (S)-4-(4-((2-amino-2,4-dimethylpentyl)oxy)-3-methylphenyl)-N-cyclopropylpyrimidin-2-amine]
pIC50: 8.77

CC(C)C[C@](C)(N)COc1ccc(-c2ccnc(Nc3nccs3)n2)cc1C(F)(F)F [Example 371, (S)—N-(4-(4-((2-amino-2,4-dimethylpentyl)oxy)-3-(trifluoromethyl)phenyl)pyrimidin-2-yl)thiazol-2-amine]
pIC50: 9.70

Cc1csc(Nc2nccc(-c3ccc(OC[C@@](C)(N)CC(C)C)c(C(F)(F)F)c3)n2)n1 [Example 376, (S)—N-(4-(4-((2-amino-2,4-dimethylpentyl)oxy)-3-(trifluoromethyl)phenyl)pyrimidin-2-yl)-4-methylthiazol-2-amine]
pIC50: 9.10

CC(C)C[C@](C)(N)COc1ccc(-c2ccnc(NC3CCCC3)n2)cc1C(F)(F)F [Example 377, (S)-4-(4-((2-amino-2,4-dimethylpentyl)oxy)-3-(trifluoromethyl)phenyl)-N-cyclopentylpyrimidin-2-amine]
pIC50: 8.13
